Laboratory results: patent US6960470B1 (priority 1998, dated 2005)

Tested on: hippocampal slices from wt and Δ9 mutant (PS-1) animals
Type: cell-based
Settings: flunitrazepam in the bathing medium; Δ9 mutant slices

Structure (SMILES): CN1C(=O)CN=C(c2ccccc2F)c2cc([N+](=O)[O-])ccc21 [flunitrazepam]
- potentiation in mutants (+FLU) compared with the wt (−FLU): potentiation to almost the wt levels
